In ChEMBL document CHEMBL4507283, “Data for DCP probe BI-1935” (2021):

How the values were obtained:
[1] = target: Serine/threonine-protein kinase Nek10 (Homo sapiens) (UniProt Q6ZWH5); conditions: Compound concentration 1000.0 nM
[2] = target: Serine/threonine-protein kinase 32B (Homo sapiens) (UniProt Q9NY57); conditions: Compound concentration 1000.0 nM
[3] = target: 5-hydroxytryptamine receptor 2A (Homo sapiens) (UniProt P28223); conditions: Compound concentration 10.0 uM
[4] = target: 3',5'-cyclic-AMP phosphodiesterase 4A (Homo sapiens) (UniProt P27815); assay: PDE-IV/HU Eurofins-Panlabs selectivity data (BI); conditions: Compound concentration 10.0 uM
[5] = tested on: Tyrosine-protein kinase ABL1 (Homo sapiens), P00519 [F317I]; conditions: Compound concentration 1000.0 nM
[6] = target: Urotensin-2 receptor (Homo sapiens) (UniProt Q9UKP6); assay: UROTENSIN_II Eurofins-Panlabs selectivity data (BI); conditions: Compound concentration 10.0 uM
Urotensin-2 receptor (Homo sapiens), sequence (Q9UKP6 whole entry): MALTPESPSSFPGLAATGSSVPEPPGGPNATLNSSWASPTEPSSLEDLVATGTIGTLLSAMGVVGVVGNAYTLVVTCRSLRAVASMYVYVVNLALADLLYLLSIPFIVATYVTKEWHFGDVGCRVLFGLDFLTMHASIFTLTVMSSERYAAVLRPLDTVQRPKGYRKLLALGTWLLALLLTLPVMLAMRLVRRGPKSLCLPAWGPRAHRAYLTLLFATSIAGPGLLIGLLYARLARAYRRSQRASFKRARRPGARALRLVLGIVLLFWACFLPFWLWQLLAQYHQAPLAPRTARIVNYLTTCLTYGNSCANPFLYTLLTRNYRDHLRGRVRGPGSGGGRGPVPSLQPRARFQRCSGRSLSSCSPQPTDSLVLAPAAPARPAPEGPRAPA

[7] = target: Interstitial collagenase (Homo sapiens) (UniProt P03956); assay: PEP_MMP-1 Eurofins-Panlabs selectivity data (BI); conditions: Compound concentration 10.0 uM
Interstitial collagenase (Homo sapiens), sequence (P03956 whole entry): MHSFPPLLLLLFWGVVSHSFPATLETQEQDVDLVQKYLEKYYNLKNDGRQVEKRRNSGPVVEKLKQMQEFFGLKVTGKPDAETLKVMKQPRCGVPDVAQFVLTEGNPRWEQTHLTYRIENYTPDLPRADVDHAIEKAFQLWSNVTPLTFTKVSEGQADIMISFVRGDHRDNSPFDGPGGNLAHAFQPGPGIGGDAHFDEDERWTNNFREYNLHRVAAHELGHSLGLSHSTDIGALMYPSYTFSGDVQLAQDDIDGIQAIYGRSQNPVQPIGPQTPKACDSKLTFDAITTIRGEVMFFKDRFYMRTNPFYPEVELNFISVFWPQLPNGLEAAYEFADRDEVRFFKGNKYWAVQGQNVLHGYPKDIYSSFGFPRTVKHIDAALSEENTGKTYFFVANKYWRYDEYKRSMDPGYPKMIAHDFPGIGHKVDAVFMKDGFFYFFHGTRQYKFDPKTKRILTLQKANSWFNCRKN

[8] = target: Dual specificity mitogen-activated protein kinase kinase 2 (Homo sapiens) (UniProt P36507); conditions: Compound concentration 1000.0 nM
Dual specificity mitogen-activated protein kinase kinase 2 (Homo sapiens), sequence (P36507 whole entry): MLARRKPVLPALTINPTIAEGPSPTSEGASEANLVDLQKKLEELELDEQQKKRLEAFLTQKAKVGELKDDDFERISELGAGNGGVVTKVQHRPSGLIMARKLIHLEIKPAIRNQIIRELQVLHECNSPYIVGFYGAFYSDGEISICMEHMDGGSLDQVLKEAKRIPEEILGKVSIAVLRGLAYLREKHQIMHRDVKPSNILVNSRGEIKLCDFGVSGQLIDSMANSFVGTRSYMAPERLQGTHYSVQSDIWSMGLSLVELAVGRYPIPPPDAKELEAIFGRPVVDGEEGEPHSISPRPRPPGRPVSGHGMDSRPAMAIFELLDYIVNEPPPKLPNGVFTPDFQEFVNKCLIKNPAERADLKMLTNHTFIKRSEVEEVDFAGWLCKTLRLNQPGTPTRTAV

[9] = target: Ribosomal protein S6 kinase beta-1 (Homo sapiens) (UniProt P23443); conditions: Compound concentration 1000.0 nM
Ribosomal protein S6 kinase beta-1 (Homo sapiens), sequence (P23443 whole entry, looked up): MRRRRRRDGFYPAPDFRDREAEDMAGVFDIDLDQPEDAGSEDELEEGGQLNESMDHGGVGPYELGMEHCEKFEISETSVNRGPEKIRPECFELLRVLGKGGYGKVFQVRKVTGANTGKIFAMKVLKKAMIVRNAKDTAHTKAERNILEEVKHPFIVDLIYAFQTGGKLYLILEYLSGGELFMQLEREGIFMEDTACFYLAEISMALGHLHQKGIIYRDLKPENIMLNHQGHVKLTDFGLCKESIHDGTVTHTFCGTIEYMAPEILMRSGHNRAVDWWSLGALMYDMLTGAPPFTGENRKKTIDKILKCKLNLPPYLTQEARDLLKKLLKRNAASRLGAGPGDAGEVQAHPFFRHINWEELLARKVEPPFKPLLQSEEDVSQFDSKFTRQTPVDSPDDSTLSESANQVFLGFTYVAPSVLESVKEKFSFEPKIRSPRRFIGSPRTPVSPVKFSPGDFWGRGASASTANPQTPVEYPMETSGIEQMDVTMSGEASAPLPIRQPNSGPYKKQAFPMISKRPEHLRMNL

[10] = target: Hepatocyte growth factor receptor (Homo sapiens) (UniProt P08581); conditions: Compound concentration 1000.0 nM
[11] = target: Ankyrin repeat and protein kinase domain-containing protein 1 (Homo sapiens) (UniProt Q8NFD2); conditions: Compound concentration 1000.0 nM
Ankyrin repeat and protein kinase domain-containing protein 1 (Homo sapiens), sequence (Q8NFD2 whole entry, the tested form may be a part): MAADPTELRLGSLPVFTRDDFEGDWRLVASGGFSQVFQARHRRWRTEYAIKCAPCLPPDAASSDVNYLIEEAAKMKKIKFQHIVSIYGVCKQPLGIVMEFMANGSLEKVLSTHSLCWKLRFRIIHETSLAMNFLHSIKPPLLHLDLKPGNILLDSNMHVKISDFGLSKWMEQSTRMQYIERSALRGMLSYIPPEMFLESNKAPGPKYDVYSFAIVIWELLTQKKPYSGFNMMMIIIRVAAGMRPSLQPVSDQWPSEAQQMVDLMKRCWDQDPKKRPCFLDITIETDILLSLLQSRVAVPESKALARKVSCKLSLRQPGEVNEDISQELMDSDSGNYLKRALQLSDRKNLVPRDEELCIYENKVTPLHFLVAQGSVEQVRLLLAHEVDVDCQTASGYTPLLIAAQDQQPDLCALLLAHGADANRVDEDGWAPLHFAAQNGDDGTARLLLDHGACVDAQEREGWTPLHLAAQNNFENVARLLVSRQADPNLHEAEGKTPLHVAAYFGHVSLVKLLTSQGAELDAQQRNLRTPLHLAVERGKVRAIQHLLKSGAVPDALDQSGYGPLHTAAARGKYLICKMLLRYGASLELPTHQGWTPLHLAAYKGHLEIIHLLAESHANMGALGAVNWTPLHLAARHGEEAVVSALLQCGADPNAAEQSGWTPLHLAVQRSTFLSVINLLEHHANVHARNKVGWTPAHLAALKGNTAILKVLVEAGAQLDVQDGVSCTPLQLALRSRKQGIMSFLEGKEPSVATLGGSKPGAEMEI

[12] = target: 3-phosphoinositide-dependent protein kinase 1 (Homo sapiens) (UniProt O15530); conditions: Compound concentration 1000.0 nM
[13] = target: Fibroblast growth factor receptor 1 (Homo sapiens) (UniProt P11362); conditions: Compound concentration 1000.0 nM
[14] = target: Mitogen-activated protein kinase kinase kinase 7 (Homo sapiens) (UniProt O43318); conditions: Compound concentration 1000.0 nM
[15] = target: Receptor-interacting serine/threonine-protein kinase 4 (Homo sapiens) (UniProt P57078); conditions: Compound concentration 1000.0 nM
[16] = target: BMP-2-inducible protein kinase (Homo sapiens) (UniProt Q9NSY1); conditions: Compound concentration 1000.0 nM
[17] = target: Sodium-dependent noradrenaline transporter (Homo sapiens) (UniProt P23975); conditions: Compound concentration 10.0 uM
[18] = target: Serine/threonine-protein kinase PAK 1 (Homo sapiens) (UniProt Q13153); conditions: Compound concentration 1000.0 nM
[19] = tested on: Fibroblast growth factor receptor 3 (Homo sapiens), P22607 [G697C]; conditions: Compound concentration 1000.0 nM
Fibroblast growth factor receptor 3 (Homo sapiens), P22607 [G697C], sequence (P22607 whole entry G697C): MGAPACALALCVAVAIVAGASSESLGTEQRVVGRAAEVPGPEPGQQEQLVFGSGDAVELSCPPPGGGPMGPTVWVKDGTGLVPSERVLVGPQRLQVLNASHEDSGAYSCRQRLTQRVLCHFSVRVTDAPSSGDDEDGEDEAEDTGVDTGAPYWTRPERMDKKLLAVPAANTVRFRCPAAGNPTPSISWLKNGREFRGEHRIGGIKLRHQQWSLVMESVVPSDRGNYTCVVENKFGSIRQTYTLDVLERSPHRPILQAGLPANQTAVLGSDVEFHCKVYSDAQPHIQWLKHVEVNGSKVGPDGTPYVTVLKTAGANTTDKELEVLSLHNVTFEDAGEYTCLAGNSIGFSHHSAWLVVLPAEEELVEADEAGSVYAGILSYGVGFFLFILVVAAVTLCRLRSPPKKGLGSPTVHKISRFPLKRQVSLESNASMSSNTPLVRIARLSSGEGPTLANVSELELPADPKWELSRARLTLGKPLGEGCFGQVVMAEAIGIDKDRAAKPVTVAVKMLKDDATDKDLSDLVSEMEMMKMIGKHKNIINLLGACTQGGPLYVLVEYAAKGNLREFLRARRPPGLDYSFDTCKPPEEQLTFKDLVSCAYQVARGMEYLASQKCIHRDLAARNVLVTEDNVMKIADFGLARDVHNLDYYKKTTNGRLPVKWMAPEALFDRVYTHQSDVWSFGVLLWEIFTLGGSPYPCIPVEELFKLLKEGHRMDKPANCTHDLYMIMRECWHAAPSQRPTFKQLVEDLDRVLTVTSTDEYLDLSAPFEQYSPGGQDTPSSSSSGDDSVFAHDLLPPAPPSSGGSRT

[20] = target: Serine/threonine-protein kinase 32C (Homo sapiens) (UniProt Q86UX6); conditions: Compound concentration 1000.0 nM
[21] = target: RAC-alpha serine/threonine-protein kinase (Homo sapiens) (UniProt P31749); conditions: Compound concentration 1000.0 nM
[22] = target: T1, 5-hydroxytryptamine receptor 3A (Homo sapiens) (UniProt P46098); assay: 5HT3/HU Eurofins-Panlabs selectivity data (BI); conditions: Compound concentration 10.0 uM
T1 sequence (whole entry): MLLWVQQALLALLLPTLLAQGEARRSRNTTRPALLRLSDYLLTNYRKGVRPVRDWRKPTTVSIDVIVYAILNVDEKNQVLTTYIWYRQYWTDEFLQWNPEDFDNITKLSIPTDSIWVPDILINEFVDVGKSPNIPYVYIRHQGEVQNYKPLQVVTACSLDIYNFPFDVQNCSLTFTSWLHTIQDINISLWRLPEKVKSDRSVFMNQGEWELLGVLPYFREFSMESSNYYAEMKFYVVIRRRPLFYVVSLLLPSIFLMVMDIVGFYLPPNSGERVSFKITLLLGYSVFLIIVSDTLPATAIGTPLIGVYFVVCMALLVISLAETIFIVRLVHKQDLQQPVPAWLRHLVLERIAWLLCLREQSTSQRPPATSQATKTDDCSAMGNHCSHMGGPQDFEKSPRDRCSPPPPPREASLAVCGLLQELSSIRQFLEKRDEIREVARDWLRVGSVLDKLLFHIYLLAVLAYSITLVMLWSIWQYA

[23] = target: Epithelial discoidin domain-containing receptor 1 (Homo sapiens) (UniProt Q08345); conditions: Compound concentration 1000.0 nM
Epithelial discoidin domain-containing receptor 1 (Homo sapiens), sequence (Q08345 whole entry, the tested form may be a part): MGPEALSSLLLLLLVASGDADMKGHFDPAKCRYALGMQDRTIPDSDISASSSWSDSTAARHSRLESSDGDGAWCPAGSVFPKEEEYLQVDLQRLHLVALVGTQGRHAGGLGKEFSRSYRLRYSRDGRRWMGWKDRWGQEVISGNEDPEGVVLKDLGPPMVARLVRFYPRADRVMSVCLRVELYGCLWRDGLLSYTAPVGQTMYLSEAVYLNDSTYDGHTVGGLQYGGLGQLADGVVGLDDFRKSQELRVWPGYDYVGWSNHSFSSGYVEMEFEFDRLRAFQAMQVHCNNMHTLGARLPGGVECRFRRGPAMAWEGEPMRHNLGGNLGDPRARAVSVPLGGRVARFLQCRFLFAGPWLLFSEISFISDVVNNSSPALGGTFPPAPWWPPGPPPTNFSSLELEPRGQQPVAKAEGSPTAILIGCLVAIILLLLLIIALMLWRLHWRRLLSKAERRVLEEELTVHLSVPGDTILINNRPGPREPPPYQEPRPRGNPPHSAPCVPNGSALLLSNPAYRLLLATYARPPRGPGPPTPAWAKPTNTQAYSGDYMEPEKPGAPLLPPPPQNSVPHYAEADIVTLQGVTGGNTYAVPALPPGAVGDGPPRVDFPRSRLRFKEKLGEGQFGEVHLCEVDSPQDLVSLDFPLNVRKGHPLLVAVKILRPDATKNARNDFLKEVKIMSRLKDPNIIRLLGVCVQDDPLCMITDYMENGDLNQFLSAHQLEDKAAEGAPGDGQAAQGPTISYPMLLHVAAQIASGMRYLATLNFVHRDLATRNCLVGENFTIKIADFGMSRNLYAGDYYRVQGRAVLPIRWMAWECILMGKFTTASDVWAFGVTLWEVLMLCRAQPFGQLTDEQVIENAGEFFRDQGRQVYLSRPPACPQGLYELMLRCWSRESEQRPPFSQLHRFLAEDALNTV

[24] = target: T2, Thromboxane-A synthase (Homo sapiens) (UniProt P24557); assay: THRO SYN(HU) Eurofins-Panlabs selectivity data (BI)
T2 sequence (whole entry): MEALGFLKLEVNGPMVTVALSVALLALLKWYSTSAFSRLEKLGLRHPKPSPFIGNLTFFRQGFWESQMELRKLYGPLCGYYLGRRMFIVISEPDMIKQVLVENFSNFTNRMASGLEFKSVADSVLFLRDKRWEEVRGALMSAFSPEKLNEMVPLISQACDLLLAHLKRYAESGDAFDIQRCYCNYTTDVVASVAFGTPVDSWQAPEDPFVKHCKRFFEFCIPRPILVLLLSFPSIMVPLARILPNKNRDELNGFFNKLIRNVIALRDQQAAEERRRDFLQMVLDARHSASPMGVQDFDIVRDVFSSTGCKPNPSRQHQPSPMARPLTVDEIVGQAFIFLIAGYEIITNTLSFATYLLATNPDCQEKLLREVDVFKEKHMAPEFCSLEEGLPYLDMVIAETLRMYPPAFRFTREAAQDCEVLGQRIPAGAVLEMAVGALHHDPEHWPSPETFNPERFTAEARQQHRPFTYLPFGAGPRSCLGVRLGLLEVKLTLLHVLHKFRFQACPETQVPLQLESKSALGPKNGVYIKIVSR

[25] = target: Serine/threonine-protein kinase 33 (Homo sapiens) (UniProt Q9BYT3); conditions: Compound concentration 1000.0 nM
Serine/threonine-protein kinase 33 (Homo sapiens), sequence (Q9BYT3 whole entry, looked up): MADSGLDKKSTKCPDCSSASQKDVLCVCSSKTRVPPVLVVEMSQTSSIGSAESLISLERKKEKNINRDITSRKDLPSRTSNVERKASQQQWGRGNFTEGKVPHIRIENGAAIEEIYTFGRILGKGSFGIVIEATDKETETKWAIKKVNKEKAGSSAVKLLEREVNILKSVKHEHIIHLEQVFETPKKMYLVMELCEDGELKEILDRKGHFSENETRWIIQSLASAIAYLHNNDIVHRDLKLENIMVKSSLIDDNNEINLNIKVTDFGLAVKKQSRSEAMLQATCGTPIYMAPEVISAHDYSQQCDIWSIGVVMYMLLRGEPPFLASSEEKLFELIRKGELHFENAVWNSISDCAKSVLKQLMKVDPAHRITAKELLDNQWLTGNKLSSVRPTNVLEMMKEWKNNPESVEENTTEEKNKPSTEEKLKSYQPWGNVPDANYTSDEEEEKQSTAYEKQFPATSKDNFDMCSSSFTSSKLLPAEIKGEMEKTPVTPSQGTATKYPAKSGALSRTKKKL

[26] = target: Dual specificity tyrosine-phosphorylation-regulated kinase 2 (Homo sapiens) (UniProt Q92630); conditions: Compound concentration 1000.0 nM
[27] = target: Mitogen-activated protein kinase kinase kinase kinase 4 (Homo sapiens) (UniProt O95819); conditions: Compound concentration 1000.0 nM
[28] = target: Mitogen-activated protein kinase kinase kinase 11 (Homo sapiens) (UniProt Q16584); conditions: Compound concentration 1000.0 nM
[29] = target: Mitogen-activated protein kinase kinase kinase 1 (Homo sapiens) (UniProt Q13233); conditions: Compound concentration 1000.0 nM
[30] = target: Ephrin type-A receptor 7 (Homo sapiens) (UniProt Q15375); conditions: Compound concentration 1000.0 nM

With CCOCCn1cc(C(=O)Nc2ccc(-n3nc(-c4cccnc4)cc3C(F)(F)F)cn2)ccc1=O [BI 1935] the residual activity [1] was 94%, the residual activity [2] was 100% and the inhibition [3] was -4.26%. The residual activity [4] was 86%, the residual activity [5] was 91% and the residual activity [6] was 97%. It also gave a residual activity [7] of 100%, a residual activity [8] of 94% and a residual activity [9] of 97%. The residual activity [10] was 95%, the residual activity [11] was 57% and the residual activity [12] was 87%. The residual activity [13] was 100%, the residual activity [14] was 90% and the residual activity [15] was 81%. The residual activity [16] was 95%, the inhibition [17] was -7.51% and the residual activity [18] was 96%. It also gave a residual activity [19] of 100%, a residual activity [20] of 100% and a residual activity [21] of 95%. It also gave a residual activity [22] of 117%, a residual activity [23] of 69% and a residual activity ([24]; Compound concentration 0.03 uM) of 86%. The residual activity ([24]; Compound concentration 0.1 uM) was 57%, the residual activity ([24]; Compound concentration 0.3 uM) was 27% and the residual activity ([24]; Compound concentration 1.0 uM) was 13%. The residual activity ([24]; Compound concentration 3.0 uM) was 2%, the residual activity ([24]; Compound concentration 10.0 uM) was 4% and the residual activity [25] was 94%. It also gave a residual activity [26] of 100%, a residual activity [27] of 91% and a residual activity [28] of 100%. It also gave a residual activity [29] of 84% and a residual activity [30] of 98%.
